Data set [1] relates to Caki-1 human kidney cancer cells. In words: Caki-1 renal tumor growth in SCID/beige mice. The format is in vivo. Particulars: SCID/beige mice (NK, T and B cell deficient); 10 mg/kg/2 days i.v.; 32 days. As to the method:
To address whether SEQ ID NO:1 anti-tumor activity is NK mediated, tumor xenograft growth was assessed in SCID/beige mice that are NK, T and B cell deficient. Caki-1 human kidney cancer cells (5×10^6 cells in 100 μl of PBS) were subcutaneously injected into the right flank of 6-7 weeks old female SCID/beige mice. After the size of tumor reached an approximate volume of 100 mm^3, 7 days post tumor cell injection, SEQ ID NO:1 and SEQ ID NO:1-SCR were administered (10 mg/kg/2 days, i.v.). Control animals received saline alone for the same period. Caliper measurements at 1 week intervals were used to calculate tumor volumes. Each point in FIG. 3 (top) represents mean tumor volume calculated from 10 animals per experimental group. After 32 days the mice were sacrificed and the tumors weighed. Each bar in FIG. 3 (bottom) represents the mean tumor weight and standard error calculated for each treatment group.

Data set [2] concerns PC-3 human prostatic cancer cells. In words: PC-3 prostate tumor growth in SCID mice. Type of data set: in vivo. To be noted: 10 mg/kg i.v. every other day, 36 days, vs saline. As to the method: PC-3 human prostatic cancer cells (1×10^7 cells in 100 μl of PBS) were subcutaneously injected into the right flank of 6-7 week old male SCID mice. After the tumor size reached an approximate volume of 50 mm^3, 14 days post tumor cell injection, SEQ ID NO:1 was administered by bolus infusion into the tail vein every other day at 10 mg/kg. Control animals received saline alone for the same period. Treatments lasted for 36 days thereafter. Antitumor activities were estimated by the inhibition of tumor volume, which was measured with a caliper on six different occasions over 36-day period. Each point represents mean tumor volume calculated from 5 animals per experimental group.

The next data set relates to H460 (lung). The experiment in a line: Colony forming ability, H460. Particulars: 0.2 μM antisense oligonucleotide/lipofectin, 4 hours. The format is cell-based, human. How it is done:
The effect of SEQ ID NO:1 on the colony forming ability were evaluated in the following human tumor cell lines:
Tumor cells were washed in 5 ml of phosphate buffered saline, pH 7.2, prior to 0.2 μM antisense oligonucleotide/lipofectin treatment for 4 hours. The medium was removed and the cells were gently washed with 5 ml of growth medium. The cells were then cultured in growth medium for seven to ten days. Surviving colonies were visualized by methylene blue staining and colonies of 50 or more cells were scored (Choy et al., 1988 and Huang and Wright, 1994). Results are summarized from 4 to 8 trials for each tumor cell line.

For a further data set, the system named is LS513 cells. In words: LS513 multi-drug resistant colon adenocarcinoma growth in SCID mice. Type of data set: in vivo, human. As to the method: LS513 cells (1×10^7 cells in 100 μl of PBS) were subcutaneously injected into the right flank of 6-7 weeks old female SCID mice. After the size of tumor reached an approximate volume of 100 mm^3, 8 days post tumor cell injection, SEQ ID NO:1 was administered by bolus infusion into the tail vein every other day at 10 mg/kg. Control animals received saline alone for the same period. Antitumor effect of SEQ ID NO:1 was further compared to that of CPT-11. CPT-11 was administered i.p. for 5 days at a dose of 20 mg/kg/day. Antitumor activities were estimated by the inhibition of tumor volume, which was measured with calipers. Each point represents mean tumor volume calculated from 10 animals per experimental group (FIG. 16A). Tumor weights were measured after animals were sacrificed at the end of the treatment (FIGS. 16B and 16C). These cells are not resistant to CPT-11, which was used as a positive control.

For data set [3] the following is noted: cynomolgus monkey, in vivo.
For data set [4] the following is noted: rat, in vivo.
Data set [5] in a line: Phase I study, 14-day continuous intravenous infusion in patients with solid tumors or lymphoma. How it is done: To determine the maximal tolerated dose (MTD) and recommended Phase II dose of SEQ ID NO:1 in patients with solid tumors or lymphoma when administered as a 14-day continuous intravenous infusion.
Safety: Adverse events and laboratory evaluation. Dosage Selection and Dosing Interval:
The starting dose in the Phase I dose-escalation study is 6.0 mg/m^2/day (approximately 0.16 mg/kg/day) infused over 14 days.
DLT Definition: • Grade 4 neutropenia associated with fever or lasting 3 days or longer. • Platelet count <25,000 μl. • Any ≧ grade 3 coagulation abnormality (defined by PT and aPTT values). • Clinical hemorrhage ≧ grade 1. • Nausea/vomiting ≧ grade 3 despite maximal antiemetic therapy; diarrhea ≧ grade 3 despite maximal anti-diarrheal therapy. • Any other non-hematological toxicity ≧grade 3 with the exception of alopecia Interim Evaluation Status:
Preliminary evaluability assessment was performed. In the Phase I open label single arm study, SEQ ID NO:1 was administered in daily doses escalating from 6.0 mg/m^2 to 210.9 mg/m^2 in patients with solid tumors or lymphoma. SEQ ID NO:1 was administered as monotherapy by ambulatory intravenous infusion for 14 days in each 21 day cycle. […] Expected toxicities for agents in the same class as SEQ ID NO:1, phosphorothioate oligonucleotides, include fatigue, prolonged coagulation (PT/aPITI) times and elevated transaminase ALT/AST) levels.

Regarding “5′-CTCTAGCGTCTTAAAGCCGA-3′ (CTCTAGCGTCTTAAAGCCGA; chemistry not given here) [SEQ ID NO:1]”, the “tumor volume and tumor weight” value in data set [1] is reported as “highly effective”. Further, the “inhibition of tumor volume” value in data set [2] is “strong inhibitory effects”. The “inhibition in colony forming ability” value with H460 (lung) is given as “greater than 60%”. Further, in the data set with LS513 cells (CPT-11 20 mg/kg/day i.p. for 5 days), the “efficacy compared with CPT-11” value is on record as “more effective than CPT-11”. Also, in the data set on LS513 cells (SCID mice, 10 mg/kg i.v. every other day, vs saline), the “tumor growth (volume, weight)” value is “significant delay of tumor growth”. Also, in data set [3], the “elimination t1/2” value fell in the range of 2.2 to 2.5 h, the “plasma Cl” value was 0.762 to 1.945 mL/min/kg and the “time to Css” value is “consistently achieved at the first or second blood collection timepoint”. Also, in data set [4], the “elimination from plasma (profile)” value is reported as “biphasic”; the “measurable in plasma post dose” value is given as “up to 24 h”; the “plasma levels (AUC and Cmax) versus dose” value is given as “increased in proportion to administered dose”. For the same substance, the “time of Cmax / maximum concentration post dose” value in data set [4] (iv) amounted to 5 min. Also, in data set [4] (iv, 50 mg/kg), the “apparent terminal elimination phase t1/2” value was 4.72 to 5.80 h and the plasma clearance was 49.67-43.30 mL/kg·h. In data set [5] (human, in vivo), the “drug related serious adverse events” value is reported as “no drug related serious adverse events” and the tolerability entry is “well tolerated”. In data set [5] (interim evaluation), the “additional sporadic toxicities considered possibly related to study therapy” value was “Grade 3 hypokalemia, Grade 3 increased blood alkaline phosphatase and Grade 3 diarrhea”; the “patients with Grade 3 fatigue” value is given as “Two patients”; the “patients with Grade 3 increased ALT” value is on record as “three patients”; the “patients with Grade 3 increased AST” value is given as “one patient”. Also, the “patients with prolonged aPTT” value in data set [5] (interim evaluation) is listed as “one patient”. Also, in data set [5] (patients, no MTD seen up to and including this dose, interim), the “maximum tolerated dose (MTD)” value was no less than 210.9 mg/m^2/day.

Values taken from patent US20070274947A1, “Antisense Oligonucleotides Directed to Ribonucleotide Reductase R1 and Uses Thereof in the Treatment of Cancer” (priority 2003, published 2007).
